Experimental data from US8901036B2, “Combinations of phenylsulfonylurea herbicides and safeners” (Bayer Cropscience AG, priority 1994, dated 2014).

How the values were obtained:
Corn = experiment: Effect and selectivity in corn: phytotoxicity; type: in vivo; conditions: corn 4 leaves
Description: (§1) Various crop plants are grown in plastic pots with a diameter of 9 cm in a glasshouse to the stated stage and then treated with the particular herbicide or with a mixture of the herbicide and the safener by the post-emergence method. This entails the herbicide of the formula (A) and the compounds of the formula (B) being applied in the form of aqueous suspensions or emulsions with a water application rate which converts to 300 l/ha. 4 weeks after the treatment, the plants are assessed visually for every type of damage by the applied herbicides, taking particular account of the extent of persistent growth inhibition. The evaluation takes place in percentages (scale from 0 to 100%) compared with untreated controls.

ECCG = experiment: Effect and selectivity in corn: herbicidal effect; type: in vivo, Echinochloa crus-galli; conditions: start of tillering (4 to 5 leaves)
Description: as §1

SVFA = experiment: Effect and selectivity in corn: herbicidal effect; type: in vivo
Description: as §1

SOHA = experiment: Effect and selectivity in corn: herbicidal effect; type: in vivo, Sorghum halepense; conditions: 3 leaves
Description: as §1

ALMY = experiment: Herbicidal activity on grasses, post-emergence; type: in vivo, Alopecurus myosuroides; conditions: no safener, 4-leaf stage
Description: as §1

AVFA = experiment: Herbicidal activity on grasses, post-emergence; type: in vivo, Avena fatua; conditions: no safener, 4-leaf stage
Description: as §1

POAN = experiment: Herbicidal activity on grasses, post-emergence; type: in vivo, Poa annua; conditions: no safener, 4-leaf stage
Description: as §1

APSP = experiment: Herbicidal activity on grasses, post-emergence; type: in vivo, Apera spica-venti; conditions: no safener, 4-leaf stage
Description: as §1

Wheat = experiment: Phytotoxicity of herbicide/safener combinations in cereals, glasshouse post-emergence; type: in vivo; conditions: no safener, 4 weeks after treatment
Description: as §1

Barley = experiment: as above; type: in vivo; conditions: no safener, 4 weeks after treatment
Description: as §1

| SMILES | Phytotoxicity or herbicidal effect in % Corn (Corn; dose 25 g AS/ha) [%] | Phytotoxicity or herbicidal effect in % Corn (Corn; dose 50 g AS/ha) [%] | Phytotoxicity or herbicidal effect in % Corn (Corn; dose 100 g AS/ha) [%] | Phytotoxicity or herbicidal effect in % ECCG (ECCG; dose 25 g AS/ha) [%] | Phytotoxicity or herbicidal effect in % ECCG (ECCG; dose 50 g AS/ha) [%] | Phytotoxicity or herbicidal effect in % SOHA (SOHA; dose 25 g AS/ha) [%] | Phytotoxicity or herbicidal effect in % SOHA (SOHA; dose 50 g AS/ha) [%] | % effect on ALMY (ALMY; dose A 6 g AS/ha) [%] | % effect on ALMY (ALMY; dose A 12 g AS/ha) [%] | % effect on ALMY (ALMY; dose A 25 g AS/ha) [%] | % effect on AVFA (AVFA; dose A 6 g AS/ha) [%] | % effect on AVFA (AVFA; dose A 12 g AS/ha) [%] | % effect on AVFA (AVFA; dose A 25 g AS/ha) [%] | % effect on POAN (POAN; dose A 6 g AS/ha) [%] | % effect on POAN (POAN; dose A 12 g AS/ha) [%] | % effect on POAN (POAN; dose A 25 g AS/ha) [%] | % effect on APSP (APSP; dose A 6 g AS/ha) [%] | % effect on APSP (APSP; dose A 12 g AS/ha) [%] | % effect on APSP (APSP; dose A 25 g AS/ha) [%] | Phytotoxicity Wheat (Wheat; dose A 6 g AS/ha) [%] | also measured |
| --- | --- | --- | --- | --- | --- | --- | --- | --- | --- | --- | --- | --- | --- | --- | --- | --- | --- | --- | --- | --- | --- |
| COC(=O)Nc1ccc(C(=O)N(C)C)c(S(=O)(=O)NC(=O)Nc2nc(OC)cc(OC)n2)c1.[Na] [A7, N-(4,6-Dimethoxypyrimidin-2-ylaminocarbonyl)-2-(N,N-dimethylaminocarbonyl)-5-(N-methoxycarbonylamino)benzenesulfonamide sodium salt] | 25 | 40 | 60 | 60 | 80 | 90 | 90 |  |  |  |  |  |  |  |  |  |  |  |  |  | Phytotoxicity or herbicidal effect in % ECCG (ECCG; dose 100 g AS/ha): 90%; Phytotoxicity or herbicidal effect in % SVFA (SVFA; dose 25 g AS/ha): 100%; Phytotoxicity or herbicidal effect in % SVFA (SVFA; dose 50 g AS/ha): 100%; Phytotoxicity or herbicidal effect in % SVFA (SVFA; dose 100 g AS/ha): 100%; Phytotoxicity or herbicidal effect in % SOHA (SOHA; dose 100 g AS/ha): 95% |
| COc1cc(OC)nc(NC(=O)NS(=O)(=O)c2cc(NC=O)ccc2C(=O)N(C)C)n1 [A8, N-(4,6-Dimethoxypyrimidin-2-ylaminocarbonyl)-2-(N,N-dimethylaminocarbonyl)-5-(N-formylamino)benzenesulfonamide] |  |  |  |  |  |  |  |  |  |  |  |  |  |  |  |  |  |  |  |  | Phytotoxicity or herbicidal effect in % ECCG (ECCG; dose 25 + 12 g AS/ha): 98%; Phytotoxicity or herbicidal effect in % ECCG (ECCG; dose 50 + 25 g AS/ha): 100%; Phytotoxicity or herbicidal effect in % SVFA (SVFA; dose 25 + 12 g AS/ha): 95%; Phytotoxicity or herbicidal effect in % SVFA (SVFA; dose 50 + 25 g AS/ha): 100%; Phytotoxicity or herbicidal effect in % SOHA (SOHA; dose 25 + 12 g AS/ha): 95%; Phytotoxicity or herbicidal effect in % SOHA (SOHA; dose 50 + 25 g AS/ha): 98% |
| CCC(=O)Nc1ccc(C(=O)N(C)C)c(S(=O)(=O)NC(=O)Nc2nc(OC)cc(OC)n2)c1.[Na] [A9, N-(4,6-Dimethoxypyrimidin-2-ylaminocarbonyl)-2-(N,N-dimethylaminocarbonyl)-5-(N-propionylamino)benzenesulfonamide sodium salt] | 0 | 15 | 35 | 99 | 100 | 98 | 100 |  |  |  |  |  |  |  |  |  |  |  |  |  |  |
| COC(=O)c1ccc(CNS(C)(=O)=O)cc1S(=O)(=O)NC(=O)Nc1nc(OC)cc(OC)n1.[Na] [A10] |  |  |  |  |  |  |  | 98 | 100 | 100 | 75 | 85 | 90 | 85 | 99 | 100 | 80 | 97 | 99 | 15 | Phytotoxicity Wheat (Wheat; dose A 12 g AS/ha): 25%; Phytotoxicity Wheat (Wheat; dose A 25 g AS/ha): 30%; Phytotoxicity Barley (Barley; dose A 6 g AS/ha): 5%; Phytotoxicity Barley (Barley; dose A 12 g AS/ha): 15%; Phytotoxicity Barley (Barley; dose A 25 g AS/ha): 55% |
| COC(=O)NCc1ccc(C(=O)OC)c(S(=O)(=O)NC(=O)Nc2nc(OC)cc(OC)n2)c1.[Na] [A11] |  |  |  |  |  |  |  | 95 | 98 | 100 | 70 | 90 | 95 | 90 | 100 | 100 | 85 | 95 | 100 | 5 | Phytotoxicity Wheat (Wheat; dose A 12 g AS/ha): 20%; Phytotoxicity Wheat (Wheat; dose A 25 g AS/ha): 45%; Phytotoxicity Barley (Barley; dose A 6 g AS/ha): 10%; Phytotoxicity Barley (Barley; dose A 12 g AS/ha): 25%; Phytotoxicity Barley (Barley; dose A 25 g AS/ha): 45% |
| COC(=O)c1ccc(CN(C)S(C)(=O)=O)cc1S(=O)(=O)NC(=O)Nc1nc(OC)cc(OC)n1 [A12] |  |  |  |  |  |  |  | 95 | 98 | 99 | 75 | 85 | 90 | 85 | 92 | 99 | 85 | 95 | 98 | 5 | Phytotoxicity Wheat (Wheat; dose A 12 g AS/ha): 10%; Phytotoxicity Wheat (Wheat; dose A 25 g AS/ha): 10%; Phytotoxicity Barley (Barley; dose A 6 g AS/ha): 8%; Phytotoxicity Barley (Barley; dose A 12 g AS/ha): 15%; Phytotoxicity Barley (Barley; dose A 25 g AS/ha): 25% |
| COC(=O)Nc1ccc(C(=O)N(C)C)c(S(=O)(=O)NC(=O)Nc2nc(OC)cc(OC)n2)c1 [A13, N-(4,6-Dimethoxypyrimidin-2-ylaminocarbonyl)-2-(N,N-dimethylaminocarbonyl)-5-(N-methoxycarbonylamino)benzenesulfonamide] | 10 | 20 | 30 | 99 | 100 | 90 | 97 |  |  |  |  |  |  |  |  |  |  |  |  |  | Phytotoxicity or herbicidal effect in % SVFA (SVFA; dose 25 g AS/ha): 90%; Phytotoxicity or herbicidal effect in % SVFA (SVFA; dose 50 g AS/ha): 95% |
